Source: patent US20110092526A1, “Adamantyl Iminocarbonyl-Substituted Pyrimidines As Inhibitors Of 11-Beta-HSD1 826” (ASTRAZENECA AB, priority 2009, published 2011)

Molecular target: T1, human 11βHSD1 enzyme (Homo sapiens, UniProt P28845)
T1 construct: N terminal 6-His tagged full length human 11βHSD1 enzyme; 6-His (N); made in house
Assay: 11βHSD1 competitive HTRF assay (conversion of cortisone to cortisol)
Assay type: biochemical
Conditions: recombinant N terminal 6-His tagged full length human 11βHSD1; cortisone 160 nM; 25 minutes at 37° C.; pH 7.5
Method: The evaluation of compounds described herein was carried out using a baculovirus expressed N terminal 6-His tagged full length human 11βHSD1 enzyme (*1). The enzyme was purified from a detergent solublised cell lysate, using a copper chelate column. Inhibitors of 11βHSD1 reduce the conversion of cortisone to cortisol, which is identified by an increase in signal, in the above assay.
Compounds to be tested were dissolved in dimethyl sulphoxide (DMSO) to 10 mM and diluted further in assay buffer containing 1% DMSO to 10 fold the final assay concentration. Diluted compounds were then plated into black 384 well plates (Matrix, Hudson N.H., USA).
The assay plates were incubated for 25 minutes at 37° C. after which time the reaction was stopped by the addition of 10 μl of 0.5 mM glycerrhetinic acid plus conjugated cortisol (D2**). 10 μl of anti-cortisol Cryptate was then added and the plates sealed and incubated for 6 hours at room temperature. Fluorescence at 665 nm and 620 nm was measured and the 665 nm:620 nm ratio calculated using an Envision plate reader.
**D2 is a cortisol tracer which competes with native cortisol produced in the reaction for the monoclonal anti-cortisol antibody labelled with europium-cryptate. The antibody will fluoresce when it is bound to the cortisol tracer complex (D2 labelled with cortisol and glycyrrhetinic acid coupled together). Thus providing an accurate measure of 11beta-HSD1 activity.

T1 sequence (P28845 whole entry): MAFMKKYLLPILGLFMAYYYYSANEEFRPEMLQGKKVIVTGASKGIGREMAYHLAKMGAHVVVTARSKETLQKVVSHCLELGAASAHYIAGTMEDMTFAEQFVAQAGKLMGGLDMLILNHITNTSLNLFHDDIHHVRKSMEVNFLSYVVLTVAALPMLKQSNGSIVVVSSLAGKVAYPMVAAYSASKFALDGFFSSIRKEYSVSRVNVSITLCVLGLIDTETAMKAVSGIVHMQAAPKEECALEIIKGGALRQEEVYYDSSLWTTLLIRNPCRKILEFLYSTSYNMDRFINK

| SMILES | IC50 [µM] |
| --- | --- |
| O=C(N[C@H]1C2CC3CC1C[C@@](O)(C3)C2)c1cnc(NC2CCS(=O)(=O)C2)nc1C1CCCC1 (stereo partly drawn) [Example 5, 4-cyclopentyl-2-[(1,1-dioxothiolan-3-yl)amino]-N-(5-hydroxy-2-adamantyl)pyrimidine-5-carboxamide] | 0.024 |
| CN1CC(Nc2ncc(C(=O)N[C@H]3C4CC5CC3C[C@@](O)(C5)C4)c(C3CCCC3)n2)CC1=O (stereo partly drawn) [Example 16, 4-cyclopentyl-N-(5-hydroxy-2-adamantyl)-2-[(1-methyl-5-oxo-pyrrolidin-3-yl)amino]pyrimidine-5-carboxamide] | 0.02 |
| CCN1CC(Nc2ncc(C(=O)N[C@H]3C4CC5CC3C[C@@](O)(C5)C4)c(C3CCCC3)n2)CC1=O (stereo partly drawn) [Example 17, 4-cyclopentyl-2-[(1-ethyl-5-oxo-pyrrolidin-3-yl)amino]-N-(5-hydroxy-2-adamantyl)pyrimidine-5-carboxamide] | 0.015 |
| CN1C(=O)CC[C@@H]1CNc1ncc(C(=O)N[C@H]2C3CC4CC2C[C@@](O)(C4)C3)c(C2CCCC2)n1 [Example 18, 4-cyclopentyl-N-(5-hydroxy-2-adamantyl)-2-[[(2R)-1-methyl-5-oxo-pyrrolidin-2-yl]methylamino]pyrimidine-5-carboxamide] | 0.023 |
| CC(C)c1nc(N[C@H]2CCOC2)ncc1C(=O)N[C@H]1C2CC3CC1C[C@@](O)(C3)C2 [Example 20, N-(5-hydroxy-2-adamantyl)-4-isopropyl-2-[[(3S)-tetrahydrofuran-3-yl]amino]pyrimidine-5-carboxamide] | 0.046 |
| CC(C)c1nc(N[C@@H]2CCOC2)ncc1C(=O)N[C@H]1C2CC3CC1C[C@@](O)(C3)C2 [Example 21, N-(5-hydroxy-2-adamantyl)-4-isopropyl-2-[[(3R)-tetrahydrofuran-3-yl]amino]pyrimidine-5-carboxamide] | 0.042 |
| O=C(N[C@H]1C2CC3CC1C[C@@](O)(C3)C2)c1cnc(N[C@@H]2CCOC2)nc1C(F)(F)F [Example 22, N-(5-hydroxy-2-adamantyl)-2-[[(3R)-oxolan-3-yl]amino]-4-(trifluoromethyl)pyrimidine-5-carboxamide] | 0.025 |
| O=C(N[C@H]1C2CC3CC1C[C@@](O)(C3)C2)c1cnc(N[C@H]2CCOC2)nc1C(F)(F)F [Example 23, N-(5-hydroxy-2-adamantyl)-2-[[(3S)-oxolan-3-yl]amino]-4-(trifluoromethyl)pyrimidine-5-carboxamide] | 0.095 |
| CCOc1nc(N[C@@H]2CCOC2)ncc1C(=O)N[C@H]1C2CC3CC1C[C@@](O)(C3)C2 [Example 24, 4-Ethoxy-N-(5-hydroxy-2-adamantyl)-2-[[(3R)-tetrahydrofuran-3-yl]amino]pyrimidine-5-carboxamide] | 0.045 |
| CCOc1nc(N[C@H]2CCOC2)ncc1C(=O)N[C@H]1C2CC3CC1C[C@@](O)(C3)C2 [Example 25, 4-Ethoxy-N-(5-hydroxy-2-adamantyl)-2-[[(3S)-tetrahydrofuran-3-yl]amino]pyrimidine-5-carboxamide] | 0.037 |
| CCCOc1nc(N[C@@H]2CCOC2)ncc1C(=O)NC1C2CC3CC1CC(O)(C3)C2 (stereo partly drawn) [Example 33, N-(5-hydroxy-2-adamantyl)-4-propoxy-2-[[(3R)-tetrahydrofuran-3-yl]amino]pyrimidine-5-carboxamide] | 0.019 |
| CCCOc1nc(N[C@H]2CCOC2)ncc1C(=O)N[C@H]1C2CC3CC1C[C@@](O)(C3)C2 [Example 34, N-(5-hydroxy-2-adamantyl)-4-propoxy-2-[[(3S)-tetrahydrofuran-3-yl]amino]pyrimidine-5-carboxamide] | 0.021 |
| O=C(N[C@H]1C2CC3CC1C[C@@](O)(C3)C2)c1cnc(N[C@@H]2CCOC2)nc1N1CCCC1 [Example 37, N-(5-hydroxy-2-adamantyl)-4-pyrrolidin-1-yl-2-[[(3R)-tetrahydrofuran-3-yl]amino]pyrimidine-5-carboxamide] | 0.777 |
| O=C(N[C@H]1C2CC3CC1C[C@@](O)(C3)C2)c1cnc(N[C@H]2CCOC2)nc1N1CCCC1 [Example 38, N-(5-hydroxy-2-adamantyl)-4-pyrrolidin-1-yl-2-[[(3S)-tetrahydrofuran-3-yl]amino]pyrimidine-5-carboxamide] | 1.6 |
| O=C(N[C@H]1C2CC3CC1C[C@@](O)(C3)C2)c1cnc(N[C@@H]2CCOC2)nc1-n1cccn1 [Example 39, N-(5-hydroxy-2-adamantyl)-4-pyrazol-1-yl-2-[[(3R)-tetrahydrofuran-3-yl]amino]pyrimidine-5-carboxamide] | 0.708 |
| O=C(N[C@H]1C2CC3CC1C[C@@](O)(C3)C2)c1cnc(N[C@H]2CCOC2)nc1-n1cccn1 [Example 40, N-(5-hydroxy-2-adamantyl)-4-pyrazol-1-yl-2-[[(3S)-tetrahydrofuran-3-yl]amino]pyrimidine-5-carboxamide] | 2.27 |
| CN(C(=O)c1cnc(N[C@@H]2CCOC2)nc1C1CCCC1)[C@H]1C2CC3CC1C[C@@](O)(C3)C2 [Example 41, 4-Cyclopentyl-N-(5-hydroxy-2-adamantyl)-N-methyl-2-[[(3R)-oxolan-3-yl]amino]pyrimidine-5-carboxamide] | 0.046 |
| CN(C(=O)c1cnc(N[C@H]2CCOC2)nc1C1CCCC1)[C@H]1C2CC3CC1C[C@@](O)(C3)C2 [Example 42, 4-cyclopentyl-N-(5-hydroxy-2-adamantyl)-N-methyl-2-[[(3S)-oxolan-3-yl]amino]pyrimidine-5-carboxamide] | 0.032 |
| NC(=O)[C@]12CC3CC(C1)[C@H](NC(=O)c1cnc(N[C@H]4CCOC4)nc1C1CCCC1)C(C3)C2 [Example 43, N-(5-carbamoyl-2-adamantyl)-4-cyclopentyl-2-[[(3S)-tetrahydrofuran-3-yl]amino]pyrimidine-5-carboxamide] | 0.017 |
| O=C(N[C@H]1C2CC3CC1C[C@@](C(=O)O)(C3)C2)c1cnc(N[C@H]2CCOC2)nc1C1CCCC1 [Example 44, 4-[[4-cyclopentyl-2-[[(3S)-tetrahydrofuran-3-yl]amino]pyrimidine-5-carbonyl]amino]adamantane-1-carboxylic acid] | 0.424 |
| CS(=O)(=O)[C@]12CC3CC(C1)[C@H](NC(=O)c1cnc(N[C@H]4CCOC4)nc1C1CCCC1)C(C3)C2 [Example 45, 4-cyclopentyl-N-(5-methylsulfonyl-2-adamantyl)-2-[[(3S)-tetrahydrofuran-3-yl]amino]pyrimidine-5-carboxamide] | 0.273 |
